Data on three compounds can be found in ChEMBL document CHEMBL1152560, “Substituted 2-arylbenzothiazoles as kinase inhibitors: hit-to-lead optimization” (Bioorg Med Chem, 2009).

Test [1] deals with Protein kinase C theta type (Homo sapiens) (UniProt Q04759). The experiment in a line: Residual activity of PKCtheta at 1 uM by microplate scintillation counting.
Test [2] concerns the target T1, Tyrosine-protein kinase Mer (Homo sapiens) (UniProt Q12866).
T1 sequence (whole entry): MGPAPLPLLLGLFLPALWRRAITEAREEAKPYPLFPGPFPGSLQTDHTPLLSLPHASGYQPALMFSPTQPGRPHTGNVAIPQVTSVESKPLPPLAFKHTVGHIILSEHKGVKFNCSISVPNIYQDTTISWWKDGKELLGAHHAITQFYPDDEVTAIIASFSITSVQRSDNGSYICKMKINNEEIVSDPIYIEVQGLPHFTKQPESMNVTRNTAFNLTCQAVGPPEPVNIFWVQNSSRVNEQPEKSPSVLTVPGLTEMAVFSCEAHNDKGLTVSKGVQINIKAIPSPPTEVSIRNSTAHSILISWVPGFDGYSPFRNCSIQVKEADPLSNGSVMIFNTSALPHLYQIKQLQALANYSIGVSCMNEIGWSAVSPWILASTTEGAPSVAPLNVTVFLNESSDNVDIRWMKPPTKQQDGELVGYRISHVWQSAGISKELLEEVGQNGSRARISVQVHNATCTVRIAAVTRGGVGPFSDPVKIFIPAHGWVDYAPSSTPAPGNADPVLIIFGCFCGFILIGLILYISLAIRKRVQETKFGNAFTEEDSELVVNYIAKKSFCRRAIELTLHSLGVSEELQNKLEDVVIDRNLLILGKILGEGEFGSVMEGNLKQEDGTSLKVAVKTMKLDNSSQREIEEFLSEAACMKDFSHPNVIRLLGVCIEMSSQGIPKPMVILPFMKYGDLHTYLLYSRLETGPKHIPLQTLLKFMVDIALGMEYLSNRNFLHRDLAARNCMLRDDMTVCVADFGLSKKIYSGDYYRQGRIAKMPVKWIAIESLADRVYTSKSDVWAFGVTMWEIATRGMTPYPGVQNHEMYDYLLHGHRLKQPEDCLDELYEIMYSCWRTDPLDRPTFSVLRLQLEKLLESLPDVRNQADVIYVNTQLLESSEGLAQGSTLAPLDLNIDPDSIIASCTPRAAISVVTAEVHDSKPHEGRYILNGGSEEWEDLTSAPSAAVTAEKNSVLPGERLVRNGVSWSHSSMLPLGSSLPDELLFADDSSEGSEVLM
The test can be described thus: Residual activity of MERTK at 1 uM by microplate scintillation counting.

For test [3], the target named is Serine/threonine-protein kinase PLK2 (Homo sapiens) (UniProt Q9NYY3). The experiment in a line: Residual activity of SNK at 1 uM by microplate scintillation counting.
Serine/threonine-protein kinase PLK2 (Homo sapiens), sequence (Q9NYY3 whole entry, looked up): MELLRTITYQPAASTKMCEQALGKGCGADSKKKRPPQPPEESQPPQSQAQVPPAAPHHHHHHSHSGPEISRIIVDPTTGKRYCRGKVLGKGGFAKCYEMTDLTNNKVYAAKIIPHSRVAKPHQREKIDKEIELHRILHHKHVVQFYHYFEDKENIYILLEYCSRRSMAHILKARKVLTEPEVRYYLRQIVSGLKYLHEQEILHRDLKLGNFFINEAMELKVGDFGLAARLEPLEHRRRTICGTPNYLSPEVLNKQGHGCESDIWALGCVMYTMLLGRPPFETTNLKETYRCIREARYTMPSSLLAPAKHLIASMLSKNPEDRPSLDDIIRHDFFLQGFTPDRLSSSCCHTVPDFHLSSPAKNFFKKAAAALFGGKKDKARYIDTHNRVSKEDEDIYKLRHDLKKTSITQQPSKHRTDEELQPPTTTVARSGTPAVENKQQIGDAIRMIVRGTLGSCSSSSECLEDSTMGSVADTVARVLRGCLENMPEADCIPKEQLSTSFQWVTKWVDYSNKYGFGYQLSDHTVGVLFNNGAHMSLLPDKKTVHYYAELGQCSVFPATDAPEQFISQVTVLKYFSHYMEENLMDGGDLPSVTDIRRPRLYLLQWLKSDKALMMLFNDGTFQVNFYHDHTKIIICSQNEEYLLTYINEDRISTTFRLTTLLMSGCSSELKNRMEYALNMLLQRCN
Test [4] concerns the target Hepatocyte growth factor receptor (Homo sapiens) (UniProt P08581). The experiment in a line: Residual activity of MET at 1 uM by microplate scintillation counting.
Test [5] addresses T2, Testis-specific serine/threonine-protein kinase 1 (Homo sapiens) (UniProt Q9BXA7).
T2 sequence (whole entry): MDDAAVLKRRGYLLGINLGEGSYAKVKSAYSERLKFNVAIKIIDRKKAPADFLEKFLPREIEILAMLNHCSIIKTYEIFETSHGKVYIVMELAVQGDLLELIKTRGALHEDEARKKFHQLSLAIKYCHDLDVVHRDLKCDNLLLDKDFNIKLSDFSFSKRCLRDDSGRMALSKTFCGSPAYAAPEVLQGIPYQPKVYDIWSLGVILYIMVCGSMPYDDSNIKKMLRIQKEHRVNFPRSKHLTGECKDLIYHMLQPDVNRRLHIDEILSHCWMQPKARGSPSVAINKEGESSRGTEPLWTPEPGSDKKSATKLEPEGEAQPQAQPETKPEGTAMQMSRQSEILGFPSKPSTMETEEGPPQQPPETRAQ
The experiment in a line: Residual activity of TSSK1 at 1 uM by microplate scintillation counting.

In test [6] the target is T3, Ephrin type-B receptor 2 (Homo sapiens) (UniProt P29323).
T3 sequence (whole entry): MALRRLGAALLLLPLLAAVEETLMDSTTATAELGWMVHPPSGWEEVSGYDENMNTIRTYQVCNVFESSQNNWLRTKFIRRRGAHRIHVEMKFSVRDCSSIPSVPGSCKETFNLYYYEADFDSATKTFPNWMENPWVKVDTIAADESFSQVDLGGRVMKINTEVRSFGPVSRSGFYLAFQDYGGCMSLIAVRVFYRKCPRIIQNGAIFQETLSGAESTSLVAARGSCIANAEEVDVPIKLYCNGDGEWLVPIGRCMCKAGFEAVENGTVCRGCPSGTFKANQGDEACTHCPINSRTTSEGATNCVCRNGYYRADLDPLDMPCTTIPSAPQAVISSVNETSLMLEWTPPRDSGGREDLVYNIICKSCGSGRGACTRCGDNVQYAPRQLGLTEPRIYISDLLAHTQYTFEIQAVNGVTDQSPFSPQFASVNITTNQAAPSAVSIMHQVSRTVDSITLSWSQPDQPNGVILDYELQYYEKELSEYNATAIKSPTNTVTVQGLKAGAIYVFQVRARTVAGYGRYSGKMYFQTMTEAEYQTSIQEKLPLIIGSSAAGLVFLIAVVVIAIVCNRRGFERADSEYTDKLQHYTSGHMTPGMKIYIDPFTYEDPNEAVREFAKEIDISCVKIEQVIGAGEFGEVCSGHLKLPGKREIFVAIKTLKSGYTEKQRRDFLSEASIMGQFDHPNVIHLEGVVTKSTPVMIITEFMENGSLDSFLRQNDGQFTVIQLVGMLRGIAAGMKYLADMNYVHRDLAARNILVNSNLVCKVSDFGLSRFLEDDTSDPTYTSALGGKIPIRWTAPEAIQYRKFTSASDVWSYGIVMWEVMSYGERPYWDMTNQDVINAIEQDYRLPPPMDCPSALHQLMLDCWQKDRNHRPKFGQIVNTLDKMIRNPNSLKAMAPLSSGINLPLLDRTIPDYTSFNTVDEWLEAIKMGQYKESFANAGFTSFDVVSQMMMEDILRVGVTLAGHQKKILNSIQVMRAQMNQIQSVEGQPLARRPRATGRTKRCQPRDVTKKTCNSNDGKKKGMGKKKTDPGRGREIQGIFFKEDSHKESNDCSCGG
The test can be described thus: Residual activity of EPHB2 at 0.1 uM by microplate scintillation counting.

Test [7] concerns the target CDK9/cyclin T1 (Homo sapiens) (UniProt O60563+P50750). The experiment in a line: Residual activity of CDK9/Cyclin T at 10 uM by microplate scintillation counting. Format: protein-complex assay.
Test [8] has as its target Insulin receptor-related protein (Homo sapiens) (UniProt P14616). The test can be described thus: Residual activity of INSRR at 1 uM by microplate scintillation counting.
Test [9] has as its target Dual specificity tyrosine-phosphorylation-regulated kinase 1A (Homo sapiens) (UniProt Q13627). The test can be described thus: Residual activity of DYRK1A at 0.1 uM by microplate scintillation counting.
For test [10], the system named is Epidermal growth factor receptor (Homo sapiens), P00533 [T790M]. The test can be described thus: Residual activity of EGFR T790M mutant at 10 uM by microplate scintillation counting.

Protein kinase C theta type (Homo sapiens), sequence (Q04759 whole entry, looked up): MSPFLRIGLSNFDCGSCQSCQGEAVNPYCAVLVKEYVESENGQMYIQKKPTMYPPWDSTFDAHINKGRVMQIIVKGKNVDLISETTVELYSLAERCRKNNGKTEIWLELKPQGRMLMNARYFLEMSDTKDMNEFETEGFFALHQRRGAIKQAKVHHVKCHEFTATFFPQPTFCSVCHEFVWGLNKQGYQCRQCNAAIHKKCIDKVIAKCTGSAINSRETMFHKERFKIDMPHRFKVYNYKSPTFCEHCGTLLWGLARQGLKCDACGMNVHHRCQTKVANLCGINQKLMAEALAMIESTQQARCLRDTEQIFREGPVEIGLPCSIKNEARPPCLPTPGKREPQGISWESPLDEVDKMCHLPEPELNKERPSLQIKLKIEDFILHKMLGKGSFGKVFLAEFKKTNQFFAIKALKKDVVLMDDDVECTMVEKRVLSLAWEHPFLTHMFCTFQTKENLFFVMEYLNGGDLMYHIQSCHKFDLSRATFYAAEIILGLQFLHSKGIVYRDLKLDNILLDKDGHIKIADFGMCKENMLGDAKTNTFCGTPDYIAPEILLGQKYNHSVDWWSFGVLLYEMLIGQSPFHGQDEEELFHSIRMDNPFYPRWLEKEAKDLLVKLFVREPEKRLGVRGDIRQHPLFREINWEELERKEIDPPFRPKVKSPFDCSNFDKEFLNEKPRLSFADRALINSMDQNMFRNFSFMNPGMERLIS
Hepatocyte growth factor receptor (Homo sapiens), sequence (P08581 whole entry): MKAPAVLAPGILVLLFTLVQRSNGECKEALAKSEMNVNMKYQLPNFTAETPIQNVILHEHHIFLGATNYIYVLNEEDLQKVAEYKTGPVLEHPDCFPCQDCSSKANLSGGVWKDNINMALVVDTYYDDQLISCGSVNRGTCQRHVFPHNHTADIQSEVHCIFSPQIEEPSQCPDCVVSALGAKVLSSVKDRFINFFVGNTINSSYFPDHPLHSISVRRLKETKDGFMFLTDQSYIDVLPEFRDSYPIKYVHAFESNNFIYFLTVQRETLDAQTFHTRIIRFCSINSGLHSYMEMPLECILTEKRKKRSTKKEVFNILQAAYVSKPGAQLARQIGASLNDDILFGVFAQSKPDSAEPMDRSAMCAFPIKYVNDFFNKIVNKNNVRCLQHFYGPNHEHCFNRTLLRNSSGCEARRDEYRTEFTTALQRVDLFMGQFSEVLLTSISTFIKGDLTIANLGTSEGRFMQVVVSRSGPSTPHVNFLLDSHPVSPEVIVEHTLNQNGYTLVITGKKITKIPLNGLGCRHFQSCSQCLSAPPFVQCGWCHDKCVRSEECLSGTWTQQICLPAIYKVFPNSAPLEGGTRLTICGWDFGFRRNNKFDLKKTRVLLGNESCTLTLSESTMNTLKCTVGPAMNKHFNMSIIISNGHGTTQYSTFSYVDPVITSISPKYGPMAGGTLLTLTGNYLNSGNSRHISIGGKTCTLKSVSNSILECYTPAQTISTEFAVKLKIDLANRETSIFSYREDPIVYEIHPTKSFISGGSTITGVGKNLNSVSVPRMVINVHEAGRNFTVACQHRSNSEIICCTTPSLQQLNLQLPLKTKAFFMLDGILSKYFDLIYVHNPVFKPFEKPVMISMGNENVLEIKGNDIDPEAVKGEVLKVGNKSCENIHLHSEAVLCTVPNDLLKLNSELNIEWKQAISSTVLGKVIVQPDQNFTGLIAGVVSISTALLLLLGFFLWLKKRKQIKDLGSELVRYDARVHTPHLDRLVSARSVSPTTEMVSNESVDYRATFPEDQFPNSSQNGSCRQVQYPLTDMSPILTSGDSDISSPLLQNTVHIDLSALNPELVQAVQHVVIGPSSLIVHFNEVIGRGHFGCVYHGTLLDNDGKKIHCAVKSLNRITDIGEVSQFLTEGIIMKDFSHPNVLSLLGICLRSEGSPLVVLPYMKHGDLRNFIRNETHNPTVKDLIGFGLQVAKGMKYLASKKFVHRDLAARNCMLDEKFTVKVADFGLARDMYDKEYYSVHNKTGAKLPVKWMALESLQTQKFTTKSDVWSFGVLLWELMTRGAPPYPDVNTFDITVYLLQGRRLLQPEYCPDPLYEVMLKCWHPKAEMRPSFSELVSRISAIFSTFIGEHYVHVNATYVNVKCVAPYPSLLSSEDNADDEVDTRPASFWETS
Insulin receptor-related protein (Homo sapiens), sequence (P14616 27-742 limits assumed): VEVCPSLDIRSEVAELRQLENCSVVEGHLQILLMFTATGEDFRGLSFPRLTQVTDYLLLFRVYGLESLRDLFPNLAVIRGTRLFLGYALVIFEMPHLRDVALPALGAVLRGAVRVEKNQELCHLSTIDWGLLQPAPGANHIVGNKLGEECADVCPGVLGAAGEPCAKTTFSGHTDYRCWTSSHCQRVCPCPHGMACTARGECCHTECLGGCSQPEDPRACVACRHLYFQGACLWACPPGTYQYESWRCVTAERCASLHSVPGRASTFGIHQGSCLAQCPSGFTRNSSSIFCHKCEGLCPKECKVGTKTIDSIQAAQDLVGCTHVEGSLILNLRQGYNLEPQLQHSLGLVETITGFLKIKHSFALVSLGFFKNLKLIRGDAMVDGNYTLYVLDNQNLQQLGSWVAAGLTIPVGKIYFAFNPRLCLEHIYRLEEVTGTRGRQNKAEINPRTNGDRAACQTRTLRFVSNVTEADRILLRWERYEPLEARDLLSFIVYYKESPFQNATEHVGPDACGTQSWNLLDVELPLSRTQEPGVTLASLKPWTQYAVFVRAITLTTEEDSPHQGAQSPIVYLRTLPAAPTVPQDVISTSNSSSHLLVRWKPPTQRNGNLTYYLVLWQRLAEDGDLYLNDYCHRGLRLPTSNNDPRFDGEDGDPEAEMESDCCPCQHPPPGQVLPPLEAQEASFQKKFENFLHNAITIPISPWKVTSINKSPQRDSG
Insulin receptor-related protein (Homo sapiens), sequence (P14616 747-1297 limits assumed): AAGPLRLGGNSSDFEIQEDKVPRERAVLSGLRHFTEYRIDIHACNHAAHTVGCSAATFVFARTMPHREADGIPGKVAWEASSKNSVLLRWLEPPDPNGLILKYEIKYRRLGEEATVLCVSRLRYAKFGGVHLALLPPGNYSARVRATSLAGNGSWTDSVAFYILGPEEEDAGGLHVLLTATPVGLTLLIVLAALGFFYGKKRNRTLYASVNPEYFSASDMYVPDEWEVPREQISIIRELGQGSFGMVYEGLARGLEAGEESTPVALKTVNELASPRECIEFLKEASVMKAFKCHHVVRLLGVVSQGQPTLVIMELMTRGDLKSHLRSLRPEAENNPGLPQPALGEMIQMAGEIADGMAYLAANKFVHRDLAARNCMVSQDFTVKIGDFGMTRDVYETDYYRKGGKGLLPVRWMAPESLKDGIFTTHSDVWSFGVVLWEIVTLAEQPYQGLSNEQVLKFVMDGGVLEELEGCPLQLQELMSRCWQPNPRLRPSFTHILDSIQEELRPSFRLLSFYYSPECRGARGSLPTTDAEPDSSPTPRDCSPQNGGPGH

One may read the residual activity as the signal under treatment as a percentage of the control signal. Consider `COc1cc2c(Oc3ccc(-c4nc5ccccc5s4)cc3)ncnc2cc1OCCCN1CCN(C)CC1`, for which the residual activity turned out to be 113% in test [1]; 16% in test [2]; 86% in [3]; 59% in test [4]; 55% in test [5]; 99% in test [6]. Moreover, the residual activity in [7] turned out to be 109%; in test [8], 105%; in [9] it was 94%; in [10], 88%.

With `COc1cc2c(Oc3ccc(-c4nc5ccccc5s4)cc3)ncnc2cc1OCCCN1CCCC1`, the residual activity in test [1] was found to be 111%; in [2], 11%; in [3], 86%; in [4] it was 74%; in [5] it was 40%; in test [6], 97%. Moreover, the residual activity in [7] was 107%; in test [8], 96%; in [9] it was 87%; in test [10] it was 96%.

In the case of `COc1cc2c(Oc3ccc(-c4nc5ccccc5s4)cc3F)ncnc2cc1OCCCN1CCN(C)CC1`, the residual activity amounted to 100% in test [1]; 19% in test [2]; 94% in test [3]; 53% in [4]; 73% in test [5]; 98% in test [6]. Also, the residual activity came to 107% in [7], 73% in test [8], 89% in test [9] and 41% in test [10].
